The results in this text go back to ChEMBL document CHEMBL1201862, “PubChem BioAssay data set” (2004).

Test systems include A498; A549; CAKI-1; EKVX; HL-60; HOP-92; HT-29; LXFL 529; M14; MCF7; MOLT-4; OVCAR-4; OVCAR-8; SF-268; SF-539; SK-MEL-2; SK-OV-3; SW-620; UO-31; NCI/ADR-RES.
Common to all, as to experiment: DTP human tumour cell line panel, 48 h

The structures appear in SMILES notation.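 Growth conditions: 96-well plates. Treatment: test compound, 48 hours, 5 concentrations. Analysis: linear interpolation between bracketing concentrations; unreached endpoints set to highest concentration. Here, GI50 denotes the concentration required for 50% inhibition of growth.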 The source made the active and inactive calls. Rule as the data show it: active = GI50 up to about 1.1 µM and inactive = higher.

Turning to `COc1ccc(C2=CN3CCC[C@H]3C=C2c2cc(O)c(OC)c(OC)c2)cc1OC`, the GI50 with A498 was 0.005 µM (active); in the test with A549 it was 0.00394 µM (active); in the test with CAKI-1, 0.00382 µM (active); in the test with EKVX, 0.00608 µM (active); in the test with HL-60, 0.00351 µM (active); in the test with HOP-92, 0.0038 µM (active). The GI50 is 0.0056 µM (active) with HT-29; 0.00389 µM (active) with LXFL 529; 0.00325 µM (active) with M14; 0.005 µM (active) in the test on MCF7; 0.00351 µM (active) in the test on MOLT-4; 0.00286 µM (active) in the test with OVCAR-4. In addition, the GI50 was 0.00377 µM (active) in the test on OVCAR-8; 0.00454 µM (active) in the test on SF-268; 0.00505 µM (active) in the test on SF-539; 0.00314 µM (active) in the test with SK-MEL-2; 0.00564 µM (active) in the test on SK-OV-3; 0.00337 µM (active) in the test with SW-620. In addition, the GI50 in the test with UO-31 was 0.0108 µM (active).
Take `COc1cc2c(cc1OC)C1Cc3cc(OC)c(OC)cc3C(C2)N1C`: the GI50 in the test on A498 is > 75 µM (inactive); in the test with A549, > 100 µM (inactive); in the test on CAKI-1 it was 85.1 µM (inactive); in the test on EKVX it was > 100 µM (inactive); in the test with HL-60 it was 14.9 µM (inactive); in the test on HOP-92, 7.71 µM (inactive). The GI50 in the test with LXFL 529 is > 100 µM (inactive); with M14, > 100 µM (inactive); in the test with MCF7 it was > 75 µM (inactive); in the test with MOLT-4 it was > 75 µM (inactive); in the test with NCI/ADR-RES, > 75 µM (inactive); with OVCAR-4, > 100 µM (inactive). Moreover, the GI50 in the test on OVCAR-8 was > 100 µM (inactive); in the test on SF-268 it was > 100 µM (inactive); in the test with SF-539, 20.8 µM (inactive); with SK-MEL-2, > 75 µM (inactive); in the test on SK-OV-3, > 75 µM (inactive); in the test on SW-620, > 100 µM (inactive).
`C=C(CCCCC)CN1CCCC1[C@@](C)(O)CC(=O)OCC` (some centres undefined): the GI50 is > 100 µM (inactive) in the test on A498; > 100 µM (inactive) in the test on A549; > 100 µM (inactive) in the test on CAKI-1; > 100 µM (inactive) with EKVX; 28.6 µM (inactive) in the test on HL-60; > 100 µM (inactive) in the test with HOP-92. In addition, the GI50 in the test with HT-29 is > 100 µM (inactive); in the test with LXFL 529, > 100 µM (inactive); with M14, > 100 µM (inactive); in the test with MOLT-4, 90.2 µM (inactive); in the test with OVCAR-4, > 100 µM (inactive); in the test with OVCAR-8 it was > 100 µM (inactive). The GI50 with SF-268, with SF-539, in the test with SK-MEL-2, with SK-OV-3, in the test with SW-620 and with UO-31 was > 100 µM (inactive) throughout.
For `Cc1ccc(C)c(N2C(=O)C(=O)C(c3nc4ccccc4s3)/C(=N\c3cccc4c(=O)[nH][nH]c(=O)c34)C2=O)c1` (centres undefined), the GI50 with A498, in the test with A549, in the test on CAKI-1, with EKVX, with HL-60 and in the test on HOP-92 was > 100 µM (inactive) each time. For the same compound, the GI50 in the test on HT-29 was > 100 µM (inactive); with LXFL 529 it was > 100 µM (inactive); in the test on M14, > 100 µM (inactive); in the test on MOLT-4, > 100 µM (inactive); in the test with OVCAR-4, 88.5 µM (inactive); in the test with OVCAR-8, > 100 µM (inactive). Also, the GI50 in the test on SF-268 was > 100 µM (inactive); with SF-539, 91.8 µM (inactive); in the test on SK-MEL-2, > 100 µM (inactive); with SK-OV-3, > 100 µM (inactive); with SW-620, > 100 µM (inactive); in the test on UO-31 it was > 100 µM (inactive).
With `CCCCNC(=O)CCN(C(=O)O)S(=O)(=O)c1ccc(NC(=O)c2ccccc2)cc1`, the GI50 in the test with A498, with A549, in the test on CAKI-1, in the test with EKVX, in the test on HL-60 and in the test with HOP-92 was > 100 µM (inactive) throughout. Moreover, the GI50 was 22 µM (inactive) with HT-29; > 100 µM (inactive) in the test with LXFL 529; > 100 µM (inactive) in the test on M14; > 100 µM (inactive) in the test with MOLT-4; > 100 µM (inactive) in the test with OVCAR-4; > 100 µM (inactive) with OVCAR-8. The GI50 with SF-268 is > 100 µM (inactive); in the test with SF-539, > 100 µM (inactive); in the test with SK-MEL-2 it was > 100 µM (inactive); with SK-OV-3, > 100 µM (inactive); in the test on SW-620, 14 µM (inactive); in the test on UO-31 it was > 100 µM (inactive).
Consider `Cc1nc2c(s/c(=N\N)n2-c2ccccc2)c(=O)n1C`, for which the GI50 with A498, in the test with A549, in the test on CAKI-1, in the test on EKVX, in the test on HL-60 and in the test with HOP-92 was > 100 µM (inactive) in each case. Besides, the GI50 in the test on HT-29, in the test on LXFL 529, in the test with M14, with MOLT-4, with OVCAR-4 and in the test on OVCAR-8 was > 100 µM (inactive) each time. Moreover, the GI50 in the test on SF-268, in the test with SF-539, in the test with SK-MEL-2, in the test with SK-OV-3, in the test on SW-620 and in the test on UO-31 was > 100 µM (inactive) in each case.

In general, GI50 refers to the concentration at which growth is held to half of that of the control.
